molecular target: His-His-USP7 (aa208-560, [C315A]) (Homo sapiens (Human), UniProt Q93009, C315A); test: Evaluation of the inhibition of USP7 by Fluorescence Intensity (FLINT) readings; format: biochemical; settings: 0.25 nM USP7, 60 minutes at 30° C. preincubation, 500 nM Ubiquitin-Rhodamine-110 substrate, 50% reduction in kinetic rate
Protocol: USP7 activity was measured using Rhodamine-110 c-terminal labelled Ubiquitin as a substrate (Viva Biosciences). Incubation with USP7 results in the release of Rhodamine-110 leading to an increase in fluorescence which can be used in the continuous measurement of USP7 activity.
The USP7 reactions were performed in a 50 μL volume, in 384 well black solid low binding plates (Corning #3575). The reaction buffer consisted of 100 mM Bicine pH 8.0, 0.01% TritonX100, 1 mM TCEP, and 10% DMSO.
0.25 nM His-His-USP7 (aa208-560, [C315A]) was incubated with compound (final concentration 10% DMSO) for 60 minutes at 30° C. The reaction was then initiated by the addition of 500 nM Ubiquitin-Rhodamine-110 substrate and the plate read every 3 minutes for 21 minutes to measure the release of Rhodamine-110. Fluorescence Intensity (FLINT) readings were measured using a […] Neo plate reader (Ex.485 nm, Em.535 nm).
The inhibition of increasing doses of compound was expressed as a percentage reduction in kinetic rate compared to the kinetic rates established between ‘DMSO only’ and ‘total inhibition’ controls (no USP7). The inhibitory concentrations that gave a 50% reduction in kinetic rate (IC50) were determined, from 11-point dose response curves, in XL-Fit using a 4-Parameter Logistic Model (Sigmoidal Dose-Response Model).

His-His-USP7 (aa208-560, [C315A]), sequence (Q93009 208-560 C315A): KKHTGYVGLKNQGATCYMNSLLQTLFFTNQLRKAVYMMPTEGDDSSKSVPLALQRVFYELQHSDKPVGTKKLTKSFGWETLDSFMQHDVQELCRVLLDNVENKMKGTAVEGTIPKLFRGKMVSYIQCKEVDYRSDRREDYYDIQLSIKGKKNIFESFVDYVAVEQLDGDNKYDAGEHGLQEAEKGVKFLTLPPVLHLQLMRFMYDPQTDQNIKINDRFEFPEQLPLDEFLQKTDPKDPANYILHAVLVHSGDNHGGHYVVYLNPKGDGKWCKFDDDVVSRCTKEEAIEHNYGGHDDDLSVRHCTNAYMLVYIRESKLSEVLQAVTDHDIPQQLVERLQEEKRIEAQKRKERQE

Row | SMILES | IC50 [nM]
1 | CC(C)(C)OC(=O)N1CC[C@@H](C(=O)N2CCC(O)(Cn3cnc4sccc4c3=O)CC2)[C@H](c2ccccc2)C1 [EXAMPLE 2, tert-butyl (3R,4R)-4-[4-hydroxy-4-[(4-oxothieno[2,3-d]pyrimidin-3-yl)methyl]piperidine-1-carbonyl]-3-phenyl-piperidine-1-carboxylate] | 128
2 | CC(C)(C)OC(=O)N1CC[C@@H](C(=O)N2CCC(O)(Cn3cnc4c(ccn4-c4ccccn4)c3=O)CC2)[C@H](c2ccccc2)C1 [EXAMPLE 15, tert-butyl (3R,4R)-4-[4-hydroxy-4-[[4-oxo-7-(2-pyridyl)pyrrolo[2,3-d]pyrimidin-3-yl]methyl]piperidine-1-carbonyl]-3-phenyl-piperidine-1-carboxylate] | 274
3 | COc1ccc(-n2ncc3c(=O)n(CC4(O)CCN(C(=O)[C@@H]5CCN(C(=O)OC(C)(C)C)C[C@H]5c5ccccc5)CC4)cnc32)cc1 [EXAMPLE 44, tert-butyl (3R,4R)-4-[4-hydroxy-4-[[1-(4-methoxyphenyl)-4-oxo-pyrazolo[3,4-d]pyrimidin-5-yl]methyl]piperidine-1-carbonyl]-3-phenyl-piperidine-1-carboxylate] | 61.5
4 | COc1cc(-n2ccc3c(=O)n(CC4(O)CCN(C(=O)[C@@H]5CCN(C(=O)OC(C)(C)C)C[C@H]5c5ccccc5)CC4)cnc32)ccc1F [EXAMPLE 57, tert-butyl (3R,4R)-4-[4-[[7-(4-fluoro-3-methoxy-phenyl)-4-oxo-pyrrolo[2,3-d]pyrimidin-3-yl]methyl]-4-hydroxy-piperidine-1-carbonyl]-3-phenyl-piperidine-1-carboxylate] | 70.2
5 | CC(C)(C)OC(=O)N1CC[C@@H](C(=O)N2CCC(O)(Cn3cnc4c(cnn4-c4ccc5c(c4)OCCO5)c3=O)CC2)[C@H](c2ccccc2)C1 [EXAMPLE 64, tert-butyl (3R,4R)-4-[4-[[1-(2,3-dihydro-1,4-benzodioxin-6-yl)-4-oxo-pyrazolo[3,4-d]pyrimidin-5-yl]methyl]-4-hydroxy-piperidine-1-carbonyl]-3-phenyl-piperidine-1-carboxylate] | 68.7
6 | O=C([C@@H]1CCNC[C@H]1c1ccccc1)N1CCC(O)(Cn2cnc3c(cnn3-c3ccccc3)c2=O)CC1 [EXAMPLE 103, 5-[[4-hydroxy-1-[(3R,4R)-3-phenylpiperidine-4-carbonyl]-4-piperidyl]methyl]-1-phenyl-pyrazolo[3,4-d]pyrimidin-4-one] | 52.9
7 | O=C([C@@H]1CCNC[C@H]1c1ccccc1)N1CCC(O)(Cn2cnc3c(ccn3-c3ccccn3)c2=O)CC1 [EXAMPLE 104, 3-[[4-hydroxy-1-[(3R,4R)-3-phenylpiperidine-4-carbonyl]-4-piperidyl]methyl]-7-(2-pyridyl)pyrrolo[2,3-d]pyrimidin-4-one] | 394
8 | O=C([C@@H]1CCN(CC(F)(F)F)C[C@H]1c1ccccc1)N1CCC(O)(Cn2cnc3[nH]ccc3c2=O)CC1 [EXAMPLE 117, 3-[[4-hydroxy-1-[(3R,4R)-3-phenyl-1-(2,2,2-trifluoroethyl)piperidine-4-carbonyl]-4-piperidyl]methyl]-7H-pyrrolo[2,3-d]pyrimidin-4-one] | 1200
9 | CN1CC[C@@H](C(=O)N2CCC(O)(Cn3cnc4c(ccn4-c4ccccc4)c3=O)CC2)[C@H](c2ccccc2)C1 [EXAMPLE 121, 3-[[4-hydroxy-1-[(3R,4R)-1-methyl-3-phenyl-piperidine-4-carbonyl]-4-piperidyl]methyl]-7-phenyl-pyrrolo[2,3-d]pyrimidin-4-one] | 140
10 | O=C([C@@H]1CCNC[C@H]1c1ccccc1)N1CCC(O)(Cn2cnc3c(ccn3-c3ccc(F)cc3)c2=O)CC1 [EXAMPLE 130, 7-(4-fluorophenyl)-3-[[4-hydroxy-1-[(3R,4R)-3-phenylpiperidine-4-carbonyl]-4-piperidyl]methyl]pyrrolo[2,3-d]pyrimidin-4-one] | 37.7
11 | COc1cccc(-n2ccc3c(=O)n(CC4(O)CCN(C(=O)[C@@H]5CCNC[C@H]5c5ccccc5)CC4)cnc32)c1 [EXAMPLE 136, 3-[[4-hydroxy-1-[(3R,4R)-3-phenylpiperidine-4-carbonyl]-4-piperidyl]methyl]-7-(3-methoxyphenyl)pyrrolo[2,3-d]pyrimidin-4-one] | 48.6
12 | CN1CC[C@@H](C(=O)N2CCC(O)(Cn3cnc4c(ccn4-c4ccc(F)cc4)c3=O)CC2)[C@H](c2ccccc2)C1 [EXAMPLE 141, 7-(4-fluorophenyl)-3-[[4-hydroxy-1-[(3R,4R)-1-methyl-3-phenyl-piperidine-4-carbonyl]-4-piperidyl]methyl]pyrrolo[2,3-d]pyrimidin-4-one] | 74.8
13 | O=C([C@@H]1CCNC[C@H]1c1ccccc1)N1CCC(O)(Cn2cnc3c(ccn3-c3cccc(Cl)c3)c2=O)CC1 [EXAMPLE 142, 7-(3-chlorophenyl)-3-[[4-hydroxy-1-[(3R,4R)-3-phenylpiperidine-4-carbonyl]-4-piperidyl]methyl]pyrrolo[2,3-d]pyrimidin-4-one] | 56.7
14 | O=C([C@@H]1CCNC[C@H]1c1ccccc1)N1CCC(O)(Cn2cnc3c(ccn3-c3ccc(Cl)cc3)c2=O)CC1 [EXAMPLE 143, 7-(4-chlorophenyl)-3-[[4-hydroxy-1-[(3R,4R)-3-phenylpiperidine-4-carbonyl]-4-piperidyl]methyl]pyrrolo[2,3-d]pyrimidin-4-one] | 41.2
15 | CC(=O)N1CC[C@@H](C(=O)N2CCC(O)(Cn3cnc4c(ccn4-c4ccccc4)c3=O)CC2)[C@H](c2ccccc2)C1 [EXAMPLE 147, 3-[[1-[(3R,4R)-1-acetyl-3-phenyl-piperidine-4-carbonyl]-4-hydroxy-4-piperidyl]methyl]-7-phenyl-pyrrolo[2,3-d]pyrimidin-4-one] | 406
16 | COc1ccc(-n2ccc3c(=O)n(CC4(O)CCN(C(=O)[C@@H]5CCN(C)C[C@H]5c5ccccc5)CC4)cnc32)cc1 [EXAMPLE 151, 3-[[4-hydroxy-1-[(3R,4R)-1-methyl-3-phenyl-piperidine-4-carbonyl]-4-piperidyl]methyl]-7-(4-methoxyphenyl)pyrrolo[2,3-d]pyrimidin-4-one] | 52.4
17 | CN1CC[C@@H](C(=O)N2CCC(O)(Cn3cnc4c(ccn4-c4cccc(Cl)c4)c3=O)CC2)[C@H](c2ccccc2)C1 [EXAMPLE 152, 7-(3-chlorophenyl)-3-[[4-hydroxy-1-[(3R,4R)-1-methyl-3-phenyl-piperidine-4-carbonyl]-4-piperidyl]methyl]pyrrolo[2,3-d]pyrimidin-4-one] | 64.8
18 | COc1cc(-n2ccc3c(=O)n(CC4(O)CCN(C(=O)[C@@H]5CCNC[C@H]5c5ccccc5)CC4)cnc32)ccc1F [EXAMPLE 157, 7-(4-fluoro-3-methoxy-phenyl)-3-[[4-hydroxy-1-[(3R,4R)-3-phenylpiperidine-4-carbonyl]-4-piperidyl]methyl]pyrrolo[2,3-d]pyrimidin-4-one] | 39.3
19 | CC(C)CN1CC[C@@H](C(=O)N2CCC(O)(Cn3cnc4c(ccn4-c4ccccc4)c3=O)CC2)[C@H](c2ccccc2)C1 [EXAMPLE 163, 3-[[4-hydroxy-1-[(3R,4R)-1-isobutyl-3-phenyl-piperidine-4-carbonyl]-4-piperidyl]methyl]-7-phenyl-pyrrolo[2,3-d]pyrimidin-4-one] | 108
20 | CC(=O)N1CC[C@@H](C(=O)N2CCC(O)(Cn3cnc4c(ccn4-c4ccc(F)cc4)c3=O)CC2)[C@H](c2ccccc2)C1 [EXAMPLE 166, 3-[[1-[(3R,4R)-1-acetyl-3-phenyl-piperidine-4-carbonyl]-4-hydroxy-4-piperidyl]methyl]-7-(4-fluorophenyl)pyrrolo[2,3-d]pyrimidin-4-one] | 102
21 | COc1ccc(-n2ncc3c(=O)n(CC4(O)CCN(C(=O)[C@@H]5CC[N+](C)(C)C[C@H]5c5ccccc5)CC4)cnc32)cc1 [EXAMPLE 169, 5-[[1-[(3R,4R)-1,1-dimethyl-3-phenyl-piperidin-1-ium-4-carbonyl]-4-hydroxy-4-piperidyl]methyl]-1-(4-methoxyphenyl)pyrazolo[3,4-d]pyrimidin-4-one] | 860
22 | CC(C)C(=O)N1CC[C@@H](C(=O)N2CCC(O)(Cn3cnc4c(ccn4-c4ccccc4)c3=O)CC2)[C@H](c2ccccc2)C1 [EXAMPLE 177, 3-[[4-hydroxy-1-[(3R,4R)-1-(2-methylpropanoyl)-3-phenyl-piperidine-4-carbonyl]-4-piperidyl]methyl]-7-phenyl-pyrrolo[2,3-d]pyrimidin-4-one] | 103
23 | COc1ccc(-n2ccc3c(=O)n(CC4(O)CCN(C(=O)[C@@H]5CCN(C(C)=O)C[C@H]5c5ccccc5)CC4)cnc32)cc1 [EXAMPLE 178, 3-[[1-[(3R,4R)-1-acetyl-3-phenyl-piperidine-4-carbonyl]-4-hydroxy-4-piperidyl]methyl]-7-(4-methoxyphenyl)pyrrolo[2,3-d]pyrimidin-4-one] | 96.1
24 | COc1cccc(-n2ccc3c(=O)n(CC4(O)CCN(C(=O)[C@@H]5CCN(C(C)=O)C[C@H]5c5ccccc5)CC4)cnc32)c1 [EXAMPLE 179, 3-[[1-[(3R,4R)-1-acetyl-3-phenyl-piperidine-4-carbonyl]-4-hydroxy-4-piperidyl]methyl]-7-(3-methoxyphenyl)pyrrolo[2,3-d]pyrimidin-4-one] | 88.4

From patent publication US11046681B2, “Substituted piperidines for the treatment of cancer” (LES LABORATOIRES SERVIER, priority 2016, dated 2021)
